From PMC4399838, “Antipsychotic-Like Effect of the Muscarinic Acetylcholine Receptor Agonist BuTAC in Non-Human Primates” (PLoS ONE, 2015)
pKi: −log10 of the molar value. “Also recorded” adds a separate entry of the source.

How the values were obtained:
[1] = test system: antipsychotic-naïve Cebus Apella monkeys; assay: d-Amphetamine-induced behaviour (unrest, stereotypies, arousal), video rating; type: in vivo; conditions: d-amphetamine 0.5 mg/kg
Description: (§1) Seven male Cebus Apella monkeys were used for evaluation the anti-amphetamine effect and the side effect profile of BuTAC. These monkeys were never before administered antipsychotics and had never experienced EPS, but had previously been administered amphetamine. For further evaluation of the EPS potential of BuTAC, the compound was tested in four male and female monkeys, all sensitized to drug-induced EPS by earlier chronic treatment with classical antipsychotic drugs.
(§2) All monkeys received all treatments with at least one week between tests and thus served as their own control. To avoid extended physical contact with the experimenter, the cages were reduced in sized by moving the back wall of the cage closer to the front wall to lightly immobilize the monkey while injecting the test substance in the thigh. This was done at 9 am at test days. After the appropriate pre-treatment time, the monkeys were videotaped in their cages at predefined time points after drug injection.
(§3) The rated primate behaviours and symptoms were the following: unrest, stereotypy, arousal, sedation and bradykinesia (Table 1). All monkeys were videotaped in 90-sec. sessions at specific time points throughout the test sessions. The videotapes were rated for amphetamine-induced behaviours and EPS by two experienced raters blinded to the treatment of the animal by means of a rating scale adapted from Peacock et al. and previously described by Andersen et al. (Table 1). In case of any discrepancy between the two ratings, the recording in question was re-evaluated and a rating agreed upon. The monkeys were videotaped at t = 30, 60, 90, 135, 150, 165, 180, 240, 300 min after BuTAC (or vehicle) administration. For the combination studies, d-amphetamine was injected at t = 120 min. Oral dyskinesia was measured in counts per 90 sec. The severity of other behaviours and symptoms were rated on a scale ranging from 0 (not present) to 6 (extreme presence).
(§4) For evaluation of anti-amphetamine effects, BuTAC was tested in doses of 0.001, 0.003, 0.01 mg/kg in combination with 0.5 mg/kg of d-amphetamine. BuTAC or peanut oil vehicle was injected s.c. at approximately 9 a.m. Pre-treatment time before s.c. injection of amphetamine was 120 min. For evaluation of side effects, BuTAC was tested alone at doses of 0.001, 0.003 and 0.01 mg/kg in antipsychotic-naïve monkeys and at doses of 0.003 and 0.01 mg/kg in monkeys sensitized to extrapyramidal side effects (EPS) by earlier long-term treatment with first generation antipsychotics. […] None of the animals were sacrificed.
(§5) Data from the experiments where BuTAC was administered alone collected at t = 60, 180, 300 min are presented. For the d-amphetamine / BuTAC study, data collected at t(amp) = 60, 120 and 180 min (t = 180, 240, 300 min) are reported. Data were analyzed for overall treatment effects at each time point by means of the non-parametric Friedman’s test for repeated measures. The Student Newman-Keuls comparison procedure was used to analyze for specific dose effects. For all tests, the accepted level of significance was p<0.05.

[2] = test system: antipsychotic-naïve Cebus Apella monkeys; assay: Side effects of BuTAC alone or with d-amphetamine; type: in vivo
Description: as §1, §2, §3, §4, §5

EPS sensitized monkeys = assay: Side effects (EPS) of BuTAC in EPS-sensitized monkeys; type: in vivo, Cebus Apella
Description: as §1
The EPS sensitized monkeys were originally caught in the wild and had been at the laboratory for 13–20 years at the time of testing. The EPS naïve monkeys were born in captivity and had been at the laboratory for 7 years at the time of testing. They were between 11 and 18 years old, when the studies were initiated. The monkeys weighed between 2.5 kg (smallest female) and 5 kg (largest male). Their weight was monitored weekly and they were regularly checked by a veterinarian.
as §3, §4

M2AChR = target: T1, M2AChR (Homo sapiens, UniProt P08172); assay: Competitive radioligand binding
T1 sequence (P08172 1-466): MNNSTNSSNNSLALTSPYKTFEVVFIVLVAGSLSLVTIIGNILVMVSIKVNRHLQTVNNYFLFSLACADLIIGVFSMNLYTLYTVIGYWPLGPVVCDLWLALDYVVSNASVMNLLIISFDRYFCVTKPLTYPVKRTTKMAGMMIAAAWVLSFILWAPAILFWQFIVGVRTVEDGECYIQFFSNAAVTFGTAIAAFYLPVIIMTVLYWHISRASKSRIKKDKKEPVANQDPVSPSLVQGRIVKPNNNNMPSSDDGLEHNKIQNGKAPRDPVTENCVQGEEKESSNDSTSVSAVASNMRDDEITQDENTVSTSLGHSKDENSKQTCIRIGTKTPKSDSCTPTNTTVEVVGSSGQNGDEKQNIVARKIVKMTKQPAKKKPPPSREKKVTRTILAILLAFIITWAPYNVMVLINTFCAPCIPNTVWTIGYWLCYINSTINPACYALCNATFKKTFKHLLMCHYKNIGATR

M3AChR = M3AChR (Homo sapiens, UniProt P20309); assay: Competitive radioligand binding
Chain of M3AChR (P20309 whole entry): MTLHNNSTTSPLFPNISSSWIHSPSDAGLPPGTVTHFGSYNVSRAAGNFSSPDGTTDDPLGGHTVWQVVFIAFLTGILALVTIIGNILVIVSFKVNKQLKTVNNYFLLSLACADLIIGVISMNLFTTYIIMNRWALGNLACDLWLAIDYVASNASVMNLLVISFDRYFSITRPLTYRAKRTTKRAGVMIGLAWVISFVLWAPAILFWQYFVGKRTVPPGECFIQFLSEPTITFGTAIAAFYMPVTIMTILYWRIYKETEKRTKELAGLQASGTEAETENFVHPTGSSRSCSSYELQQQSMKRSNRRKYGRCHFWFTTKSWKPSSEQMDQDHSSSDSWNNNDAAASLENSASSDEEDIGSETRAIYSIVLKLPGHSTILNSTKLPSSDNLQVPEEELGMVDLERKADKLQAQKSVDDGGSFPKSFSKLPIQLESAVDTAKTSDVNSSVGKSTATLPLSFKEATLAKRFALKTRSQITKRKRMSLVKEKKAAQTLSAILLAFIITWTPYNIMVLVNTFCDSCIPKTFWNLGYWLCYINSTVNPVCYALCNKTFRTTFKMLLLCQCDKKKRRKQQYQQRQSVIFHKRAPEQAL

[3] = BuTAC 0.003 mg/kg s.c., at 180 min
[4] = BuTAC 0.01 mg/kg s.c., at 120 and 180 min
[5] = BuTAC 0.001 mg/kg / d-amphetamine 0.5 mg/kg
[6] = BuTAC alone 0.001, 0.003, 0.01 mg/kg
[7] = BuTAC 0.01 mg/kg, four EPS sensitized monkeys

CCCCSc1nsnc1[C@H]1CN2CCC[C@H]1C2 [BuTAC, (5R,6R)-6-(3-butylthio-1,2,5-thiadiazol-4-yl)-1-azabicyclo[3.2.1]octane]
Effect on d-amphetamine-induced arousal ([1]; BuTAC 0.001 mg/kg s.c., at 60 min): counteracted | Effect on amphetamine-induced stereotypies [1, 3]: significantly reduced | Effect on amphetamine-induced unrest [1, 3]: significantly counteracted | Effect on amphetamine-induced stereotypies [1, 4]: significantly reduced | Effect on amphetamine-induced unrest [1, 4]: significantly counteracted | Effect on d-amphetamine-induced arousal ([1]; BuTAC 0.003 and 0.01 mg/kg s.c., at 60, 120 and 180 min): counteracted | Emetic events (vomiting) (monkeys affected) [2, 5]: 0 | Sedation 2 ≤ X ≤ 5 (monkeys affected) [2, 5]: 0 | Salivation (monkeys affected) ([2]; BuTAC 0.001 mg/kg / vehicle): 0 | Sedation 2 ≤ X ≤ 5 (monkeys affected) ([2]; BuTAC 0.001 mg/kg / vehicle): 0 | Sedation 2 ≤ X ≤ 5 (monkeys affected) ([2]; BuTAC 0.003 mg/kg / d-amphetamine 0.5 mg/kg): 0 | Salivation (monkeys affected) ([2]; BuTAC 0.003 mg/kg / vehicle): 0 | Muscular relaxation (monkeys affected) ([2]; BuTAC 0.01 mg/kg (footnote of Table 3)): all monkeys | Sedation 2 ≤ X ≤ 5 (monkeys affected) ([2]; BuTAC 0.01 mg/kg / d-amphetamine 0.5 mg/kg): 0 | Muscular relaxation (monkeys affected) ([2]; BuTAC 0.001 and 0.003 mg/kg (footnote of Table 3)): one | Muscular relaxation (monkeys affected) ([2]; BuTAC 0.003 and 0.01 mg/kg combined with d-amphetamine): Six | Unrest (rating 0–6) ([2]; BuTAC alone 0.01 mg/kg, after 180 and 300 min, p<0.05): decrease in unrest | Sedation (rating 0–6) ([2]; BuTAC alone 0.01 mg/kg, all three test times, p<0.05 relative to vehicle): produced sedation | Arousal [2, 6]: no significant effect | Stereotypies, oral dyskinesia, bradykinesia or dystonia [2, 6]: not observed | Sedation, oral dyskinesia, bradykinesia or dystonia ([2]; BuTAC and d-amphetamine): not observed | EPS ([2]; EPS naive monkeys): did not induce EPS | EPS (EPS sensitized monkeys; BuTAC 0.003 mg/kg): no EPS | Mild bradykinesia (monkeys affected) (EPS sensitized monkeys; [7]): Two | Oral dyskinesia and dystonia (EPS sensitized monkeys; [7]): not observed; also recorded: no signs | Sedation (monkeys affected) (EPS sensitized monkeys; [7]): all four | EPS (EPS sensitized monkeys; lower doses, 0.001- or 0.003 mg/kg of BuTAC (discussion)): no signs of EPS

CCCSc1nsnc1[C@H]1CN2CCC[C@H]1C2 [PTAC, (5R,6R) 6-(3-propylthio-1,2,5-thiadiazol-4-yl)-1-azabicyclo-[3.2.1]-octane]
pKi (M2AChR): 8.42 | pKi (M3AChR): 9.40
